# Source: patent publication US7399608B2, “Microbial detection and quantification” (Kimberly-Clark Worldwide, Inc., priority 2003, dated 2008)
# Assays:
# E. coli [1] = test: Cyclodextrin enhancement: coated towel with bacteria; design: species or system Escherichia coli; details: hydroxypropyl-beta-cyclodextrin coated towel
# Protocol: A SCOTT® paper towel was first coated with hydroxypropyl-beta-cyclodextrin (from Cerestar International, Hammond, Ind., USA) in solution in water (1 gram in 20 ml) by dipping and air-drying at ambient temperature. When dry the coated paper towel was treated with a solution of Reichardt's dye in isopropanol (1 weight percent) and allowed to air-dry. The dried towel was a purple/blue in color. Here the cyclodextrin hinders the crystallization of the dye allowing a more vivid color of the dye to occur on the paper towel. This coated towel was used in a test with gram-negative bacteria (E. coli) and found to turn colorless in less than 5 seconds when an aliquot of 100 microliters of media containing 10,000 CFU/ml was applied to the towel. […] Thus by hindering the dye from crystallizing, the dye is believed to be present on the substrate as single molecules and therefore the sensitivity of the dye to bacteria levels increases. The inventors believe that by careful use of a coating (e.g. cyclodextrin) on the towel a mono-molecular coating of dye will occur on the surface of the substrate and maximum sensitivity will occur.
# Influenza A = test: Virus detection with Reichardt's dye-coated stickers
# [2] = test system: bacteria from aged chicken juice; test: Reichardt's dye indicator spray on surfaces contaminated with aged chicken; details: for false-positive test: chicken broth versus aged chicken juice: 160 mg in 10 ml isopropanol
# E. coli [3] = test: Dry sample testing on dye-coated towel; design: species or system Escherichia coli; details: dry colony rubbed onto pre-moistened dye coated SCOTT towel
# Protocol: A test using the Reichardt's dye coated paper towel with a “dry” bacteria sample, not in solution was carried out. A dry sample of a colony of E. coli bacteria lifted off an agar petri dish containing a series of growing cultures was used. This dry sample was then rubbed onto a pre-moistened dye coated SCOTT® paper towel. The area where the colony was placed and rubbed turned colorless within 1-5 seconds. This is a similar to how a wet wipe towel would be used and it performed well.
# [4] = Effect of acid and strong base on Reichardt's dye de-colorization; type: physicochemical
# Text: This was repeated with another area.
# vaccinia = details: 50-microliter droplet, 3 minutes
# [5] = test system: bacteria in aged chicken juice; test: Dye solution dropped onto aged chicken juice on SCOTT paper towel (comparative examples); details: 100 mg suspended in 10 ml acetonitrile, dropped onto aged chicken juice on SCOTT paper towel
# [6] = test system: bacteria in aged chicken juice; test: Dried dye coating on ceramic surface with or without TWEEN 80, aged chicken juice; details: 80 mg/10 mL acetonitrile with 200 μL TWEEN 80, dried on ceramic, drop of aged chicken juice
# Text: This solution was then used to coat a ceramic surface (FIG. 11) and allowed to air dry. […] After drying, a drop of aged chicken juice known to have a high bacterial count was placed on the each coating area (11B). […] Furthermore, the addition of TWEEN® surfactant allowed for easy removal of the dye from the surface.
# gram-positive bacteria = test: Dye solution added to bacteria spot on SCOTT towel
# Protocol: A new potential for the Reichardt's dye-based bacterial indicator was realized through testing of liquid dye with bacteria on a substrate rather than substrate-bound dye coming into contact with liquid bacteria (Example 5). This experiment focused on determining how the dye solution responds to known concentrations of bacteria residing on a surface. 100 μl of 10^8 CFU/ml gram-positive bacteria was placed on a SCOTT® towel (FIG. 9A). To this spot was added a drop of the Reichardt's dye dissolved in acetonitrile (160 mg in 10 ml acetonitrile) (9B).
# For comparison, a spot of dye was dried onto the towel and the same amount of bacteria was added. […] Additional drops of the dye were added to the spot of bacteria (9C), and de-colorization continued until the fourth drop, at which point the purple color persisted (9D). Attempts to restore the dye color on the dye-coated SCOTT® towel by adding acetonitrile using a pipette were unsuccessful (9E).
# [7] = test system: Herpes Simplex Virus 1 (HSV-1); test: Virus detection with Reichardt's dye-coated stickers; details: 50-microliter droplet, 3 minutes
# P. aeruginosa = test: Quantification of bacterial contamination by Delta E (hand-held spectrophotometer); design: species or system Psuedomonas aeruginosa; details: label substrate, log CFU/ml (actual) 6
# Text: More specifically, indicator strips coated with Reichardt's dye were exposed with decreasing amounts of the bacteria aliquots. A hand-held spectrophotometer was used to after application of each aliquot to determine “Delta E” value (calculated using L*, A*, and B* values) for each CFU/mL concentration. The results are set forth below in Table 4 (for paper) and Table 5 (for label). From the above, standard detection curves were generated as shown in FIGS. 5-7 for S. aureus, P. aeruginosa, and E. coli, respectively. As shown, each type of bacteria changed the color of the dye-treated substrate in a slightly different way, creating a unique standard curve. Thereafter, drops of unknown bacteria concentrations were placed on the stickers and a spectrophotometer was used to measure the “Delta E” of the resulting color. The numerical values obtained for each unknown sample set forth below in Tables 6-7. […] Although a few of the results were not completely accurate, the present inventors believe that improving the uniformity of the coating would further enhance detection accuracy.
# S. aureus = test: De-colorization of Reichardt's dye-coated paper and stickers by bacteria; design: species or system Staphylococcus aureus
# Protocol: This experiment tested the ability of a surface coating of Reichardt's dye to respond to bacterial contamination. […] To this paper was added 100 μL aliquots of 10^7, 10^6, 10^5, and 10^4 CFU/mL E. coli or S. aureus solutions (8B). Water was used as a negative control. […] It was later determined that while both bacteria solutions were indeed at 10^7 CFU/mL concentrations, the actual concentration of the S. aureus solution was 7×10^7 CFU/mL compared to 1×10^7 CFU/mL for the E. coli solution.
# A sheet of paper self-adhesive stickers (Avery-Dennison) was also brush-coated with two different concentrations of Reichardt's dye solution (160 mg/10 mL acetonitrile, 80 mg/10 mL acetonitrile). The stickers were applied to the lid and latch mechanism of a Huggies® Wet Wipes box. A gloved hand was used to transfer 10^7 CFU/mL S. aureus to the surface of the stickers. […] The sticker could provide a means for easy and rapid detection of bacterial contamination for a variety of applications.
# [8] = 160 mg in 10 ml acetonitrile dried on SCOTT towel
compound,measurement,setting,value
"[O-]c1c(-c2ccccc2)cc(-[n+]2c(-c3ccccc3)cc(-c3ccccc3)cc2-c2ccccc2)cc1-c1ccccc1 [Reichardt's dye, 2,6-diphenyl-4-(2,4,6-triphenylpyridinio)-phenolate]",lowest bacteria concentration at which decolorization occurred,E. coli [1]; 1 weight percent dye in isopropanol,500 CFU/ml
same,time to turn colorless,"E. coli [1]; 1 weight percent dye in isopropanol, 100 microliters of 10,000 CFU/ml",less than 5 seconds
same,time to decolorize,E. coli [1]; 500 CFU/ml,≤ 15 s
same,de-colorization of sticker by undiluted virus,Influenza A,less than that observed for the other viruses
same,color change of indicator spray on area contacted by aged chicken,"[2]; 160 mg in 10 mL acetonitrile, sprayed on ceramic plate",decolorized
same,color change of indicator spray on contaminated doorknob,"[2]; 160 mg in 10 mL isopropanol, plastic doorknob marked with aged chicken juice",de-colorization of the Reichardt's dye from blue to colorless
same,false-positive test: chicken broth versus aged chicken juice,[2]; ceramic surface,only the side containing the aged chicken juice (and thus bacteria) was de-colorized
same,false-positive test: chicken broth versus aged chicken juice,[2]; hot plate surface,only the side containing the aged chicken juice (and thus bacteria) was de-colorized
same,de-colorization after cleaning guided by the spray,"[2]; isopropanol spray, ceramic surface cleaned again with 60% ethanol antiseptic",no de-colorization took place
same,time to turn colorless,E. coli [3],1 to 5 s
same,effect of 1 N NaOH on acid-decolorized dye spots,[4]; [8],rapid re-colorization
same,effect of acetic acid and Aldrich buffer pH 2.0 on dried dye spots,[4]; [8],rapid de-colorization
same,effect of 1 N NaOH on dye decolorized by aged chicken juice,"[4]; indicator spray 160 mg in 10 ml acetonitrile, hot plate surface",re-colorization of that small spot
same,de-colorization of sticker by undiluted virus,vaccinia,less than that observed for the other viruses
same,color change on aged chicken juice (control),[5],immediately decolorized
same,de-colorization faster with TWEEN 80 surfactant than without,[6],20 to 30 s
same,de-colorization of dye solution added to bacteria spot,gram-positive bacteria; 160 mg in 10 ml acetonitrile dropped on 100 μl of 10^8 CFU/ml on SCOTT towel,immediately de-colorized
same,drop at which the purple color persisted,"gram-positive bacteria; 160 mg in 10 ml acetonitrile, 100 μl of 10^8 CFU/ml",fourth drop
same,time to de-colorize when bacteria are placed onto dye dried on towel,"gram-positive bacteria; dye spot dried on cellulosic towel, same amount of bacteria",several minutes
same,de-colorization of sticker by undiluted virus,[7],stronger de-colorization of the sticker than that observed for Rhinovirus and Polio virus
same,"Delta E, unknown sample",P. aeruginosa,4.1002
same,de-colorization time,"S. aureus; paper brush-coated with 80 mg/10 mL acetonitrile, 100 μL of 10^7 to 10^4 CFU/mL",< 1 min
same,de-colorization of coated stickers,"S. aureus; stickers coated with 160 or 80 mg/10 mL acetonitrile, 10^7 CFU/mL transferred by gloved hand",rapidly de-colorized
